The values that follow come from ChEMBL document CHEMBL1201862, “PubChem BioAssay data set” (2004).

SMILES strings stand for the structures.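 96-well plates; 48 h exposure; 5 concentrations. Endpoints by linear interpolation between flanking doses. Not reached: highest tested concentration assigned. At the GI50, growth is halved.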 Active and inactive are the calls of the source. Cut-off read from the data, not from the text of the source: active = GI50 up to about 1.1 µM and inactive = higher.

Test systems include HCC 2998; SW-620; Hs-578T; NCI-H226; SF-268; MDA-MB-231; SK-MEL-28; A498; LOX IMVI; SK-MEL-5; HOP-92; UACC-257; HCT-116; COLO 205; UO-31; HT-29; SK-MEL-2; DU-145; HL-60; CCRF-CEM.
Common to all, as to experiment: DTP human tumour cell line panel, 48 h

In general, GI50 refers to the concentration that inhibits growth by half. On to `NCCSCCc1ccccc1`, for which the GI50 in the experiment with HCC 2998, in the experiment on SW-620, in the experiment with Hs-578T, in the experiment on NCI-H226, in the experiment with SF-268 and in the experiment on MDA-MB-231 was > 100 µM (inactive) each time. The GI50 in the experiment on SK-MEL-28 was > 100 µM (inactive); with A498 it was > 100 µM (inactive); with LOX IMVI, > 100 µM (inactive); in the experiment with SK-MEL-5, > 100 µM (inactive); with HOP-92, 72.1 µM (inactive); in the experiment on UACC-257, > 100 µM (inactive). For the same compound, the GI50 in the experiment with HCT-116, in the experiment with COLO 205, in the experiment on UO-31, in the experiment on HT-29, in the experiment with SK-MEL-2 and in the experiment on DU-145 was > 100 µM (inactive) in each case.

In the case of `Cc1nc2c(ccc3[nH]c4ccccc4c32)s1`, the GI50 is 15.3 µM (inactive) in the experiment on HCC 2998; 19.7 µM (inactive) with SW-620; 16.3 µM (inactive) with Hs-578T; 14.8 µM (inactive) in the experiment with NCI-H226; 29.2 µM (inactive) in the experiment with SF-268; 14.5 µM (inactive) in the experiment with MDA-MB-231. Besides, the GI50 with SK-MEL-28 is 21.1 µM (inactive); in the experiment with HL-60, 0.111 µM (active); with A498, 17.8 µM (inactive); in the experiment on SK-MEL-5, 15.2 µM (inactive); with HOP-92, 16.3 µM (inactive); with UACC-257 it was 35.6 µM (inactive). Moreover, the GI50 is 17.4 µM (inactive) with HCT-116; 18.8 µM (inactive) in the experiment on CCRF-CEM; 20.5 µM (inactive) in the experiment on COLO 205; 26.2 µM (inactive) in the experiment with UO-31; 16.9 µM (inactive) in the experiment with HT-29; 19.9 µM (inactive) with SK-MEL-2. Also, the GI50 with DU-145 was 33.8 µM (inactive).

Regarding `CN1C(=O)CC2CCCN2C1=O` (centres undefined), the GI50 with HCC 2998, in the experiment on SW-620, with Hs-578T, in the experiment with NCI-H226, in the experiment on SF-268 and in the experiment on MDA-MB-231 was > 100 µM (inactive) each time. In addition, the GI50 is 5.09 µM (inactive) in the experiment on SK-MEL-28; > 100 µM (inactive) with A498; > 100 µM (inactive) in the experiment on LOX IMVI; > 100 µM (inactive) with SK-MEL-5; 86.9 µM (inactive) in the experiment with HOP-92; > 100 µM (inactive) with UACC-257. For the same compound, the GI50 is 4.27 µM (inactive) in the experiment on CCRF-CEM; > 100 µM (inactive) in the experiment with COLO 205; > 100 µM (inactive) in the experiment on UO-31; > 100 µM (inactive) in the experiment on HT-29; > 100 µM (inactive) with SK-MEL-2; > 100 µM (inactive) with DU-145.

`CSc1nc(NC2CCCC2)c2cc[nH]c2n1`: the GI50 in the experiment with HCC 2998 was > 100 µM (inactive); in the experiment with SW-620 it was > 100 µM (inactive); in the experiment on Hs-578T it was 53.1 µM (inactive); with NCI-H226, 87.5 µM (inactive); in the experiment on SF-268 it was 68.7 µM (inactive); with MDA-MB-231, 36.1 µM (inactive). Besides, the GI50 is 92 µM (inactive) in the experiment on SK-MEL-28; 20 µM (inactive) in the experiment with HL-60; 22.6 µM (inactive) in the experiment with A498; 37.6 µM (inactive) in the experiment with LOX IMVI; 35.2 µM (inactive) in the experiment with SK-MEL-5; 30.1 µM (inactive) with HOP-92. The GI50 in the experiment with UACC-257 is 55.5 µM (inactive); with HCT-116, 35.2 µM (inactive); in the experiment with CCRF-CEM, 47.4 µM (inactive); with COLO 205, 48.4 µM (inactive); with UO-31 it was 48.1 µM (inactive); in the experiment with HT-29 it was 37.1 µM (inactive). For the same compound, the GI50 with DU-145 was > 100 µM (inactive).

Consider `NS(=O)(=O)c1nnc(NS(=O)(=O)c2ccccc2[N+](=O)[O-])s1`, for which the GI50 in the experiment with HCC 2998, in the experiment on SW-620, in the experiment on Hs-578T, with NCI-H226, in the experiment with SF-268 and in the experiment on MDA-MB-231 was > 100 µM (inactive) each time. For the same compound, the GI50 with SK-MEL-28, in the experiment with HL-60, with A498, in the experiment with SK-MEL-5, in the experiment with HOP-92 and with HCT-116 was > 100 µM (inactive) throughout. Further, the GI50 in the experiment on COLO 205, with UO-31, with HT-29, in the experiment on SK-MEL-2 and in the experiment on DU-145 was > 100 µM (inactive) in each case.

Consider `CCOC(=O)N1c2ccccc2S(=O)(=O)c2ccccc21`, for which the GI50 in the experiment on HCC 2998, in the experiment with SW-620, with Hs-578T, with NCI-H226, in the experiment on SF-268 and in the experiment with MDA-MB-231 was > 100 µM (inactive) throughout. The GI50 with SK-MEL-28, in the experiment with HL-60, with A498, with LOX IMVI, in the experiment on SK-MEL-5 and in the experiment on UACC-257 was > 100 µM (inactive) in each case. Also, the GI50 with HCT-116, in the experiment with CCRF-CEM, in the experiment with COLO 205, in the experiment with UO-31, with HT-29 and in the experiment on SK-MEL-2 was > 100 µM (inactive) in each case. Further, the GI50 in the experiment with DU-145 is > 100 µM (inactive).

With `COC(=O)c1ccc2c(c1)CC1(C2)Cc2cc3c(cc2C1=O)CCC3` (centres undefined), the GI50 in the experiment on HCC 2998 is 40.3 µM (inactive); with SW-620, 60.4 µM (inactive); with Hs-578T, 77.4 µM (inactive); in the experiment with SF-268 it was 79.6 µM (inactive); in the experiment on MDA-MB-231 it was 36.4 µM (inactive); in the experiment on SK-MEL-28 it was 46.1 µM (inactive). The GI50 in the experiment on HL-60 is 16.8 µM (inactive); in the experiment on A498 it was 64.3 µM (inactive); with LOX IMVI it was 24.3 µM (inactive); in the experiment with SK-MEL-5 it was 9.18 µM (inactive); in the experiment with HOP-92, 28.2 µM (inactive); in the experiment with UACC-257 it was 18.3 µM (inactive). For the same compound, the GI50 in the experiment on HCT-116 was 29.6 µM (inactive); in the experiment with CCRF-CEM it was 15 µM (inactive); in the experiment on COLO 205 it was 14.8 µM (inactive); in the experiment with UO-31, 38.7 µM (inactive); in the experiment with HT-29 it was 15.4 µM (inactive); in the experiment on SK-MEL-2, 38.8 µM (inactive). Moreover, the GI50 in the experiment with DU-145 is 57.7 µM (inactive).

Consider `CCOC(=O)C(C(N)=O)C1=Nc2cc([N+](=O)[O-])ccc2N/C1=C\C(=O)c1ccc(C)cc1` (centres undefined), for which the GI50 was 23.3 µM (inactive) in the experiment with HCC 2998; 28.7 µM (inactive) in the experiment on SW-620; 21.6 µM (inactive) with Hs-578T; 27.4 µM (inactive) in the experiment with NCI-H226; 15.1 µM (inactive) in the experiment on SF-268; 18.4 µM (inactive) in the experiment on MDA-MB-231. Also, the GI50 was 29.3 µM (inactive) with SK-MEL-28; 27.8 µM (inactive) with A498; 23.3 µM (inactive) in the experiment with LOX IMVI; 33.9 µM (inactive) with SK-MEL-5; 18.1 µM (inactive) in the experiment on HOP-92; 39.5 µM (inactive) with UACC-257. The GI50 with HCT-116 was 20.7 µM (inactive); with CCRF-CEM it was 23.6 µM (inactive); in the experiment on COLO 205, 27.2 µM (inactive); in the experiment on UO-31, 17.6 µM (inactive); in the experiment with HT-29, 33.1 µM (inactive); with SK-MEL-2, 20.9 µM (inactive). Moreover, the GI50 in the experiment with DU-145 is 32.6 µM (inactive).

Take `O=c1[nH]c(=O)n(C2C(CO)OC(CO)C2O)cc1F` (centres undefined): the GI50 in the experiment with HCC 2998, in the experiment with SW-620, in the experiment on Hs-578T, in the experiment on NCI-H226, in the experiment on SF-268 and in the experiment on MDA-MB-231 was > 100 µM (inactive) each time. Moreover, the GI50 with SK-MEL-28, in the experiment with A498, in the experiment with LOX IMVI, in the experiment on SK-MEL-5, in the experiment on HOP-92 and with UACC-257 was > 100 µM (inactive) throughout. The GI50 in the experiment with HCT-116, with CCRF-CEM, with COLO 205, with UO-31, in the experiment with HT-29 and in the experiment on SK-MEL-2 was > 100 µM (inactive) each time. The GI50 in the experiment on DU-145 is > 100 µM (inactive).

With `CC(C)(Cl)C(Br)CCC(C)(Cl)C(Br)CBr` (centres undefined), the GI50 with HCC 2998 is 38.1 µM (inactive); with SW-620 it was 27.5 µM (inactive); in the experiment with Hs-578T, 35.7 µM (inactive); in the experiment with NCI-H226, 25.4 µM (inactive); with SF-268 it was 37.2 µM (inactive); in the experiment with MDA-MB-231, 23.3 µM (inactive). Besides, the GI50 in the experiment with SK-MEL-28 is 29.1 µM (inactive); in the experiment with HL-60, 19.4 µM (inactive); with A498 it was 22.5 µM (inactive); with SK-MEL-5, 18.2 µM (inactive); in the experiment with HOP-92, 15.8 µM (inactive); with UACC-257, 19.6 µM (inactive). Also, the GI50 in the experiment with HCT-116 was 18.8 µM (inactive); with CCRF-CEM it was 18.8 µM (inactive); with COLO 205 it was 18.5 µM (inactive); in the experiment with UO-31 it was 31.9 µM (inactive); in the experiment with HT-29, 19.5 µM (inactive); in the experiment with SK-MEL-2, 18.1 µM (inactive). Further, the GI50 in the experiment with DU-145 was 29 µM (inactive).

On to `S=C(S)N1CCN(c2ccc(Cl)c(Cl)c2)CC1`, for which the GI50 in the experiment with HCC 2998 is 20.8 µM (inactive); with SW-620 it was 21.7 µM (inactive); with Hs-578T, 23.4 µM (inactive); with SF-268, 31.8 µM (inactive); in the experiment with MDA-MB-231, 21.3 µM (inactive); with SK-MEL-28, 25.4 µM (inactive). The GI50 in the experiment on HL-60 is 20.9 µM (inactive); in the experiment on A498 it was 18 µM (inactive); in the experiment on LOX IMVI, 16.6 µM (inactive); with SK-MEL-5 it was 16.1 µM (inactive); in the experiment with HOP-92 it was 22.3 µM (inactive); with UACC-257 it was > 10 µM (inactive). Besides, the GI50 with HCT-116 was 13.9 µM (inactive); with CCRF-CEM it was 13 µM (inactive); in the experiment on COLO 205, 18.2 µM (inactive); in the experiment with HT-29, 20.8 µM (inactive); in the experiment on SK-MEL-2, 17 µM (inactive); with DU-145, 25.9 µM (inactive).
